Consider five compounds from patent publication US20240391871A1, “SUBSTITUTED HYDROXYMETHYL PYRROLIDINES AND MEDICAL USES THEREOF” (ATROGI AB, priority 2021, published 2024).

Some results are limits rather than exact numbers.

Holding throughout (type): cell-based
The test system of assay [1] is Intracellular cAMP levels. The experiment in a line: Measurement of intracellular cAMP levels in differentiated L6 cells. Conditions: compound 1×10^−5 M, 15 min. How it is done: (§1) L6-myoblasts were grown in Dulbecco's Modified Eagle's Medium (DMEM) containing 1 g/L glucose supplemented with 10% fetal bovine serum, 2 mM L-Glutamine, 50 U/mL penicillin, 50 μg/mL streptomycin and 10 mM HEPES. Cells were plated at 1×10^5 cells per mL in 24-well plates. After reaching 90% confluence the cells were grown in medium containing 2% FBS for 7 days where upon cells differentiated into myotubes.
Differentiated cells were serum-starved overnight and stimulated with an agonist, final concentration 1×10^−5 M, for 15 min in stimulation buffer (HBSS supplemented with 1% BSA, 5 mM HEPES and 1 mM IBMX, pH 7.4). The medium was aspirated and 100 μL of 95% EtOH was added to each well of the 24-well plate and cells were kept at −20° C. overnight. The EtOH was allowed to evaporate and 500 μL of lysis buffer (1% BSA, 5 mM HEPES and 0.3% Tween-20, pH 7.4) was added to each well. The plate was kept at −80° C. for 30 min and then at −20° C. until the day of detection when the samples were thawed. Intracellular cAMP levels were detected using an alpha screen cAMP kit (6760635D from Perkin Elmer). The activity for each compound is compared to that of isoproterenol.
For orientation: Changes in cAMP serve as a functional read-out for many G protein-coupled receptors.

Assay [2] concerns L6-myotubes. The experiment in a line: Glucose uptake in L6-myotubes in the presence of the β2-antagonist ICI-118,551. Conditions: compound 1×10^−5 M, ICI-118,551 1×10^−5 M. How it is done:
as §1
Differentiated L6-myotubes were serum-starved overnight in medium containing 0.5% fatty-acid free BSA and were incubated with the β2-adrenergic receptor antagonist ICI-118,551 at a final concentration of 1×10^−5 M for 30 min. The cells were stimulated with a compound of the invention, at a final concentration of 1×10^−5 M. After 1 h 40 min the cells were washed twice with warm, glucose free medium or PBS and additional portions of the compound of the invention and the antagonist were added. After 20 min the cells were exposed to 50 nM ^3H-2-deoxyglucose for 10 min before washed with ice cold glucose free medium or PBS three times and lysed with 0.2 M NaOH, 400 μL/well, for 1 h at 60° C. The cell lysate was mixed with 4 mL scintillation buffer (Emulsifier Safe, Perkin Elmer) and the radioactivity was detected in a β-counter (Tri-Carb 4810TR, Perkin Elmer). The activity for each compound is compared to that of isoproterenol.

Assay [3] concerns L6-myotubes. The assay can be described thus: Glucose uptake (3H-2-deoxyglucose) in differentiated L6-myotubes. The conditions noted are these: compound 1×10^−5 M. How it is done:
as §1
Differentiated L6-myotubes were serum-starved overnight in medium containing 0.5% fatty-acid free BSA and stimulated with an agonist, with a final concentration of 1×10^−5 M. After 1 h 40 min the cells were washed with warm glucose free medium or PBS twice and another portion of agonist was added to the glucose free medium. After 20 min the cells were exposed to 50 nM ^3H-2-deoxyglucose for 10 min before washed with ice cold glucose free medium or PBS three times and lysed with 0.2 M NaOH, 400 μL/well, for 1 h at 60° C. The cell lysate was mixed with 4 mL scintillation buffer (Emulsifier Safe, Perkin Elmer) and the radioactivity was detected in a β-counter (Tri-Carb 4810TR, Perkin Elmer). The activity for each compound is compared to that of isoproterenol.

As to `CO[C@H]1CC[C@H](C[C@@H]2CC[C@H]([C@H](O)c3cccc(F)c3)N2)CC1.Cl` [Example 1, (R)-(3-Fluorophenyl)((2R,5S)-5-(((1r,4S)-4-methoxycyclohexyl)methyl) -pyrrolidin-2-yl)methanol hydrochloride], the “Biological example 2: intracellular cAMP levels, activity compared to that of isoproterenol” value in assay [1] was “− (less than 25%)”. Further, the “Biological example 3: glucose uptake in the presence of the β2-antagonist ICI-118,551, activity compared to that of isoproterenol” value in the assay on L6-myotubes [2] was “− (less than 25%)”. Further, the “Biological example 1: glucose uptake, activity compared to that of isoproterenol” value in the assay on L6-myotubes [3] is given as “+++ (more than 75% of that of isoproterenol)”.

For `CO[C@H]1CC[C@H](C[C@@H]2CC[C@H]([C@@H](O)c3cccc(F)c3)N2)CC1.Cl` [Example 2, (S)-(3-Fluorophenyl)((2R,5S)-5-(((1r,4S)-4-methoxycyclohexyl) -methyl)pyrrolidin-2-yl)methanol hydrochloride], the “Biological example 2: intracellular cAMP levels, activity compared to that of isoproterenol” value in assay [1] is “− (less than 25%)”. In the assay on L6-myotubes [2], the “Biological example 3: glucose uptake in the presence of the β2-antagonist ICI-118,551, activity compared to that of isoproterenol” value is given as “− (less than 25%)”. In addition, the “Biological example 1: glucose uptake, activity compared to that of isoproterenol” value in the assay with L6-myotubes [3] is “+++ (more than 75% of that of isoproterenol)”.

As for `CO[C@H]1CC[C@H](C[C@H]2CC[C@H]([C@H](O)c3cccc(F)c3)N2)CC1.Cl` [Example 3, (R)-(3-Fluorophenyl)((2R,5R)-5-(((1r,4R)-4-methoxycyclohexyl)-methyl) -pyrrolidin-2-yl)methanol hydrochloride], the “Biological example 2: intracellular cAMP levels, activity compared to that of isoproterenol” value in assay [1] is given as “− (less than 25%)”. For the same compound, the “Biological example 3: glucose uptake in the presence of the β2-antagonist ICI-118,551, activity compared to that of isoproterenol” value in the assay with L6-myotubes [2] is listed as “− (less than 25%)”. Also, in the assay on L6-myotubes [3], the “Biological example 1: glucose uptake, activity compared to that of isoproterenol” value is “+++ (more than 75% of that of isoproterenol)”.

On to `CO[C@H]1CC[C@H](C[C@@H]2CC[C@H]([C@H](O)c3ccccc3F)N2)CC1.Cl` [Example 5], for which, in the assay with L6-myotubes [2], the “Biological example 3: glucose uptake in the presence of the β2-antagonist ICI-118,551, activity compared to that of isoproterenol” value is “− (less than 25%)”.

On to `CO[C@H]1CC[C@H](C[C@H]2CC[C@H]([C@H](O)c3ccccc3F)N2)CC1.Cl` [Example 7, (R)-(2-Fluorophenyl)((2R,5R)-5-(((1r,4S)-4-methoxycyclohexyl)methyl) -pyrrolidin-2-yl)methanol hydrochloride], for which the Emax at 10 µM is 25 to 50% in assay [1] (Rattus norvegicus, L6, 0.25 h, read-out: Biological example 2: intracellular cAMP levels, activity compared to that of isoproterenol) and over 75% in the assay on L6-myotubes [3] (read-out: Biological example 1: glucose uptake, activity compared to that of isoproterenol). For the same compound, the “Biological example 3: glucose uptake in the presence of the β2-antagonist ICI-118,551, activity compared to that of isoproterenol” value in the assay on L6-myotubes [2] is given as “− (less than 25%)”.
